Test results reported in publication PMC10246721, “Cryo-EM structures for the Mycobacterium tuberculosis iron-loaded siderophore transporter IrtAB” (Protein & Cell, 2022).

Experiments:
[1] = biological target: T1, IrtABΔSID (SID-truncated IrtAB) (Mycobacterium tuberculosis, UniProt P9WQJ7+P9WQJ9)
T1 construct: gene irtA

[2] = biological target: T1, IrtABΔSID (SID-truncated IrtAB); remark: listed apart in the source

Structure (SMILES) | ATPase activity, phosphate release (MAK-113) [1] | cryo-EM structure [2]
Nc1ncnc2c1ncn2[C@@H]1O[C@H](COP(=O)(O)OP(=O)(O)OP(=O)(O)O)[C@@H](O)[C@H]1O [ATP] | ATPase activity of IrtABΔSID is comparable to that of the wild-type (WT) protein | –
Nc1ncnc2c1ncn2[C@@H]1O[C@H](COP(=O)(O)OP(=O)(O)O)[C@@H](O)[C@H]1O [ADP] | – | we also solved the structure of IrtABΔSID in complex with ADP
